Assay results taken from patent US20210368825A1, “FEED ADDITIVE FOR DAIRY CATTLE COMPRISING N-ACETYL-L-TRYPTOPHAN AS ACTIVE INGREDIENT” (CJ CHEILJEDANG CORPORATION, priority 2018, published 2021).
Entries after “also recorded” stand apart in the source; their conditions may differ.

Tests used:
[1] = tested on: milking cows after calving; experiment: Analysis of milk quality of dairy cattle after calving according to NALT feeding (milk scanner FT1); type: in vivo, Holstein Friesian cows; parameters: Aceton / Aceton, total AVG / BHB / BHB, total AVG / Cas.B / Cas.B, total AVG / Mono FA / Mono FA, total AVG / Saturated FA / Saturated FA, total AVG / Total FA / Total FA, total AVG: unit not given here
From the text: (§1) From among Holstein Friesian cows in the late stage of gestation corresponding to 60 days before calving, 8 cows were selected in consideration of calving time (expected calving date±15 days), the number of calving (calving number), and the like, and 4 cows were assigned to each of a control (untreated) and a treated group.
(§2) In the present disclosure, as a basal diet fed during a dry period and a milking period, total mixed ration (TMR), roughage, and concentrates were provided in accordance with NRC (2001) nutrition requirements for dry cows. In the case of the treated group, evaluation was performed by supplementing N-acetyl-L-tryptophan (NALT) to the basal diet. Newborn calves were fed with colostrum for 3 days and then fed with milk obtained during a milking process for 8 weeks.
(§3) Evaluation of feed feeding before calving by feeding N-acetyl-L-tryptophan was performed for 60±8 days (error caused by difference in expected calving dates). The control was fed with the basal diet, and the treated group was fed with the basal diet supplemented with 15 g of NALT.
Raw milk was pooled at 3 a.m. and 3 p.m. every 14 days after calving when lactation was initiated, and chemical compositions contained in milk, i.e., milk fat, milk protein, lactose, solid-not-fat (SNF), somatic cells, milk urea nitrogen (MUN), acetone, beta-hydroxybutyrate (BHB), casein-beta, mono- and poly-unsaturated fatty acids, saturated fatty acids, and total fatty acid, were analyzed using a milk scanner FT1 (Foss Alle 1 DK-3400 Hilleroed, Denmark).
In addition, in order to identify changes in milk protein yield and milk fat yield, changes were identified on a weekly basis.

[2] = tested on: calves born from dairy cattle; experiment: Metabolic change of calves born from dairy cattle according to NALT feeding; type: in vivo, Holstein Friesian cows (calves)
From the text: as §1, §2, §3
(§4) Blood was collected from dairy cattle and calves during 6 weeks of the dry period and immediately after calving via the jugular vein before feeding a morning feed every 2 weeks for 8 weeks. The collected blood was aliquoted into a serum tube (BD Vacutainer, Plymouth, UK) and a heparin tube (Becton-Dickinson, Belliver Industrial Estate, Plymouth, PL6 7BP, UK) and centrifuged (3,500 rpm, 15 min, 20° C.) to separate plasma.
Samples for analysis of metabolic changes such as albumin, glutamic-oxalacetic transaminase (GOT), blood urea nitrogen (BUN), triglycerides (TG), cholesterol (CHO), glucose (GLU), and non-esterified fatty acid (NEFA) were aliquoted into a 1.5 mL tube (Eppendorf AG, Hamburg, Germany) in an amount of 500 μL each and stored in a deep freezer at −80° C.

[3] = tested on: milking cows after calving; experiment: Analysis of milk yield of dairy cattle after calving according to NALT feeding; type: in vivo, Holstein Friesian cows
From the text: as §1, §2, §3
Milk yield of each of the 8 milking cows used in the present disclosure was recorded at 3 a.m. and 3 p.m. every day for 8 weeks, and average milk yield was calculated after pooling them every two weeks after calving.

[4] = tested on: dairy cattle after calving; experiment: Change in hematological properties of dairy cattle after calving according to NALT feeding; type: in vivo, Holstein Friesian cows
From the text: as §1, §2, §3, §4
(§5) Blood samples for analysis of changes in hematological properties such as white blood cells (WBC), lymphocytes, monocytes, granulocytes, mean corpuscular volume, mean corpuscular hemoglobin, and platelets were aliquoted into an ethylenediaminetetraacetic acid (EDTA)-treated vacutainer (Becton-Dickinson, Franklin Lakes, N.J., USA) and analyzed using a VetScan HM2 Hematology System (ABAXIS, Calif., USA).

[5] = tested on: calves born from dairy cattle; experiment: Change in hematological properties of calves born from dairy cattle according to NALT feeding; type: in vivo, Holstein Friesian cows (calves)
From the text: as §1, §2, §3, §4, §5

[6] = tested on: dairy cattle in dry period; experiment: Change in hematological properties of dairy cattle in dry period according to NALT feeding; type: in vivo, Holstein Friesian cows
From the text: as §1, §2, §3, §4, §5

[7] = average over 8 weeks after calving
[8] = milk, average over 8 weeks after calving
[9] = calves born from NALT-treated dairy cattle

## CC(=O)N[C@@H](Cc1c[nH]c2ccccc12)C(=O)O [NALT, N-acetyl-L-tryptophan]
[1]; 0 wk
  Lactose: 3.48%
  Milk fat: 6.25%
  Milk protein: 12.81%
  Milk urea nitrogen: 24.43 mg/dL
  Solid-not Fat: 17.17%
  Somatic cells: 4867.95 ×10^3
[1]; [7]
  Lactose, total AVG: 4.38%
  Milk fat, total AVG: 6.31%
  Milk protein, total AVG: 4.88%
  Milk urea nitrogen, total AVG: 16.49 mg/dL
  Solid-not Fat, total AVG: 9.95%
  Somatic cells, total AVG: 1086.15 ×10^3
[1]; immediately after calving
  milk fat yield of colostrum compared with control: lower
  milk protein yield of colostrum compared with control: higher
[1]; milk beta-hydroxybutyrate, 0 wk
  BHB: 0.00
[1]; milk beta-hydroxybutyrate, average over 8 weeks after calving
  BHB, total AVG: 0.04
[1]; milk casein-beta, 0 wk
  Cas.B: 9.76
[1]; milk casein-beta, average over 8 weeks after calving
  Cas.B, total AVG: 3.71
[1]; milk mono-unsaturated fatty acids, 0 wk
  Mono FA: 1.35
[1]; milk mono-unsaturated fatty acids, average over 8 weeks after calving
  Mono FA, total AVG: 1.70
[1]; milk poly-unsaturated fatty acids, 0 wk
  Poly FA: 0.34
[1]; milk poly-unsaturated fatty acids, average over 8 weeks after calving
  Poly FA, total AVG: 0.36
[1]; milk, 0 wk
  Aceton: 0.00
  Saturated FA: 4.95
  Total FA: 1.38
[1]; [8]
  Aceton, total AVG: 0.07
  Saturated FA, total AVG: 4.20
  Total FA, total AVG: 2.16
[1]; weekly basis after calving, control showed a tendency to decrease
  milk fat yield as the experiment progressed: tendency to be maintained constantly
[2]; calves of the NALT-treated group, 8 weeks after birth
  glucose (Glu) index of newborn calves compared with control: statistically significant difference; also recorded: decreasing a blood glucose level
[2]; calves, 0 wk
  Albumin: 2.50 g/dL
  BUN: 10.00 mg/dL
  CHO: 33.00 mg/dL
  GLU: 54.75 mg/dL
  GOT: 47.25 U/L
  TG: 14.50 mg/dL
[2]; calves, average 0 to 8 weeks
  Albumin, total AVG: 3.36 g/dL
  BUN, total AVG: 11.30 mg/dL
  CHO, total AVG: 109.30 mg/dL
  GOT, total AVG: 62.55 U/L
  TG, total AVG: 34.40 mg/dL
[2]; calves, average 0 to 8 weeks, P 0.015
  GLU, total AVG: 78.95 mg/dL
[3]; 0 wk (immediately after calving)
  Milk yield: 24.03 kg
[3]; 8 weeks after calving
  increase in average milk yield compared with control: ≥ 4 kg
[3]; [7]
  Milk yield, total AVG: 35.44 kg
[4]
  effect on hematological properties of dairy cattle compared with control: did not significantly affect
[4]; 0 wk, reference 0-0.84
  Monocyte: 0.92 K/uL
[4]; 0 wk, reference 0.6-6.7
  Granulocyte: 6.41 K/uL
[4]; 0 wk, reference 2.5-7.5
  Lymphocyte: 7.99 K/uL
[4]; 0 wk, reference 4-12
  WBC: 15.32 K/uL
[4]; 0 wk, reference 11-17
  MCH: 16.80 pg
[4]; 0 wk, reference 40-60
  MCV: 47.00 fL
[4]; 0 wk, reference 100-800
  Platelet: 348.75 K/ul
[4]; average 0 to 8 weeks, reference 0-0.84
  Monocyte, total AVG: 0.91 K/uL
[4]; average 0 to 8 weeks, reference 0.6-6.7
  Granulocyte, total AVG: 5.18 K/uL
[4]; average 0 to 8 weeks, reference 2.5-7.5
  Lymphocyte, total AVG: 7.86 K/uL
[4]; average 0 to 8 weeks, reference 4-12
  WBC, total AVG: 13.95 K/uL
[4]; average 0 to 8 weeks, reference 11-17
  MCH, total AVG: 16.60 pg
[4]; average 0 to 8 weeks, reference 40-60
  MCV, total AVG: 46.55 fL
[4]; average 0 to 8 weeks, reference 100-800
  Platelet, total AVG: 480.51 K/ul
[5]; [9]
  initial index of mean corpuscular hemoglobin (MCH) of newborn calves compared with control: statistically significant difference
  initial index of mean corpuscular volume (MCV) of newborn calves compared with control: statistically significant difference
  monocyte index of newborn calves compared with control: significant differences
[5]; calves, 0 wk, reference 0-0.84
  Monocyte: 0.32 K/uL
[5]; calves, 0 wk, reference 0.6-6.7
  Granulocyte: 9.68 K/uL
[5]; calves, 0 wk, reference 2.5-7.5
  Lymphocyte: 3.72 K/uL
[5]; calves, 0 wk, reference 4-12
  WBC: 13.72 K/uL
[5]; calves, 0 wk, reference 11-17, P 0.056
  MCH: 12.95 pg
[5]; calves, 0 wk, reference 40-60, P 0.027
  MCV: 39.00 fL
[5]; calves, 0 wk, reference 100-800
  Platelet: 512.75 K/ul
[5]; calves, average 0 to 8 weeks, reference 0-0.84, P 0.031
  Monocyte, total AVG: 0.53 K/uL
[5]; calves, average 0 to 8 weeks, reference 0.6-6.7
  Granulocyte, total AVG: 4.69 K/uL
[5]; calves, average 0 to 8 weeks, reference 2.5-7.5
  Lymphocyte, total AVG: 6.93 K/uL
[5]; calves, average 0 to 8 weeks, reference 4-12
  WBC, total AVG: 12.14 K/uL
[5]; calves, average 0 to 8 weeks, reference 11-17
  MCH, total AVG: 11.20 pg
[5]; calves, average 0 to 8 weeks, reference 40-60
  MCV, total AVG: 31.80 fL
[5]; calves, average 0 to 8 weeks, reference 100-800
  Platelet, total AVG: 584.35 K/ul
[5]; conclusion drawn from hematology of calves
  immune response of the calves born from dairy cattle: positive effects
[6]; dry period, 0 wk, reference 0-0.84
  Monocyte: 0.48 K/uL
[6]; dry period, 0 wk, reference 0.6-6.7
  Granulocyte: 3.89 K/uL
[6]; dry period, 0 wk, reference 2.5-7.5
  Lymphocyte: 7.68 K/uL
[6]; dry period, 0 wk, reference 4-12
  WBC: 10.45 K/uL
[6]; dry period, 0 wk, reference 11-17
  MCH: 16.01 pg
[6]; dry period, 0 wk, reference 40-60
  MCV: 46.75 fL
[6]; dry period, 0 wk, reference 100-800
  Platelet: 297.67 K/ul
[6]; dry period, average 0 to 6 weeks, reference 0-0.84
  Monocyte, total AVG: 0.74 K/uL
[6]; dry period, average 0 to 6 weeks, reference 0.6-6.7
  Granulocyte, total AVG: 3.29 K/uL
[6]; dry period, average 0 to 6 weeks, reference 2.5-7.5
  Lymphocyte, total AVG: 7.88 K/uL
[6]; dry period, average 0 to 6 weeks, reference 4-12
  WBC, total AVG: 11.91 K/uL
[6]; dry period, average 0 to 6 weeks, reference 11-17
  MCH, total AVG: 16.74 pg
[6]; dry period, average 0 to 6 weeks, reference 40-60
  MCV, total AVG: 47.54 fL
[6]; dry period, average 0 to 6 weeks, reference 100-800
  Platelet, total AVG: 331.35 K/ul
[6]; during the dry period
  effect on hematological properties of dairy cattle compared with control: did not significantly affect
